{"source": "patent US20220008401A1", "about": "“COMPOSITIONS AND METHODS FOR TREATING PULMONARY DISEASE WITH MATRIX METALLOPROTEINASE INHIBITORS” (DARSHA LLC, priority 2019, published 2022)", "key": {"[1]": {"assay": "Lung and serum levels after nebulized Compound 1 in mice (mass spectroscopy)", "assay_type": "in vivo", "procedure": "The compound was administered with a nebulizer of (FIG. 1A). With a 9 cc Medication Nebulizer, a dose of liquid medicine was prepared to a final concentration of 5 ml (3 mg/mL). Treatment was for approximately 20-30 minutes until all liquid was delivered. […] The nebulizer includes a Hospital grade Schuco air compressor 100, Blue top medication nebulizer 110, Plastic collar 120, White elbow hose connector 130, 7′ crush proof 02 tubing to air compressor 140, and MPC Aerosol Pie Cage 150. Technical Specifications of the nebulizing system were as follows:\nThe pie cage 150 has 12 slots to hold 12 mice.\n10 mice were divided into three trial groups:\nLow dose group: 3 mice at 2 mg dose (˜5 mg/kg) Medium dose group: 3 mice at 5 mg dose (˜12 mg/kg) High dose group: 4 mice at 10 mg dose (˜35 mg/kg)\nThe mice were nebulized within their respective dosing group for fifteen minutes (starting with the lowest dosing and moving up to the highest). One mouse was sacrificed per group at 1 hour, 3 hours and 5 hours after the drug delivery (2 mice were sacrificed for the 10 mg dose group).\n[…] were collected during sacrifice: upper and lower left lung, right lung, and serum. The order of sample collection was: first blood, then left lung, then right lung. Before removing the right lung, but after removing the left lung, the right lung was lavaged. The lung samples were immediately placed into liquid nitrogen and the blood samples rested for 4 hours at room temperature. After the blood clotted it was centrifuged and the serum was taken into a new tube. Lung and serum samples were then analyzed by mass spectroscopy."}, "[2]": {"assay": "Presence of aerosolized Compound 1 in lung of LPS-injured mice", "assay_type": "in vivo, C57BL/6J mice", "conditions": "single aerosolized dose 35 mg/kg, one hour following nebulization", "procedure": "MMP 9 was selected as a target as it is a well-established mediator of inflammation in lung injury. 12-week-old male C57BL/6J mice were intranasally instilled with LPS (1.5 mg/kg of 1 mg/ml solution in sterile PBS). 24 hours later, these mice received a single dose of aerosolized MMP inhibitor (Compound 1, dissolved in PBS, 35 mg/kg) or PBS alone. One hour following nebulization, the mice were sacrificed and assessed for MMP activity in both the bronchoalveolar lavage fluid (BALF) and lung tissue homogenate obtained from treated mice. One hour following nebulization of Compound 1, the presence of the aerosolized Compound 1 in the lung was confirmed at concentrations >100 ng/g of tissue. MMP activity in BALF was determined using a commercially available MMP 9 Quantikine assay from R&D systems."}, "[3]": {"tested_on": "neutrophils (PMN)", "assay": "BALF cell counts (cytospin, DifQuik), LPS-injured mice, single inhaled dose", "assay_type": "in vivo", "conditions": "1 hour following treatment", "procedure": "Since substantial literature indicates neutrophils (PMN) are critical mediators of inflammatory damage in injured lung, we next assessed if inhaled Compound 1 attenuated PMN infiltration of LPS injured lungs. To achieve this, mice were injured with LPS and 24 h later received a single inhaled dose of Compound 1 and were sacrificed 1 hour after dosing. PMN infiltration was assessed by examining lung sections (qualitatively) and BALF (quantitatively) from Compound 1 treated and untreated mice. Quantitative examination was performed on BALF samples that were collected from each animal and subsequently subjected to cytospin centrifugation and DifQuik staining. The fraction of PMN present in each sample may be quantified by counting 300 cells of the inflammatory cell population across three different microscopic images. The obtained fraction may then be multiplied by the total cell count to estimate the number of PMNs present in the BALF."}, "[4]": {"tested_on": "LPS injured mice", "assay": "Lung injury score (LIS) and H&E sections, LPS-injured mice, q6h x 4 doses", "assay_type": "in vivo"}, "[5]": {"tested_on": "mice exposed to cigarette smoke", "assay": "Cigarette smoke exposure model, BALF total cell counts", "assay_type": "in vivo", "conditions": "cigarette smoke 10 days; inhaled Compound 1 once a day for last four days; sacrifice 1 hour after final dose", "procedure": "In order to determine if the observed effects of Compound 1 were specific to a model of acute lung injury, we exposed mice to cigarette smoke, a more chronic model of lung injury, for 10 days while treating once a day with inhaled Compound 1 for the last four days of smoke exposure. Mice were sacrificed 1 hour following their final dose of Compound 1 on the 10th day. BALF was collected and total cell counts were performed. […] (*p<0.05)."}, "[6]": {"target": "MMP 9 (Mus musculus, UniProt P41245)", "sequence (P41245 108-730)": "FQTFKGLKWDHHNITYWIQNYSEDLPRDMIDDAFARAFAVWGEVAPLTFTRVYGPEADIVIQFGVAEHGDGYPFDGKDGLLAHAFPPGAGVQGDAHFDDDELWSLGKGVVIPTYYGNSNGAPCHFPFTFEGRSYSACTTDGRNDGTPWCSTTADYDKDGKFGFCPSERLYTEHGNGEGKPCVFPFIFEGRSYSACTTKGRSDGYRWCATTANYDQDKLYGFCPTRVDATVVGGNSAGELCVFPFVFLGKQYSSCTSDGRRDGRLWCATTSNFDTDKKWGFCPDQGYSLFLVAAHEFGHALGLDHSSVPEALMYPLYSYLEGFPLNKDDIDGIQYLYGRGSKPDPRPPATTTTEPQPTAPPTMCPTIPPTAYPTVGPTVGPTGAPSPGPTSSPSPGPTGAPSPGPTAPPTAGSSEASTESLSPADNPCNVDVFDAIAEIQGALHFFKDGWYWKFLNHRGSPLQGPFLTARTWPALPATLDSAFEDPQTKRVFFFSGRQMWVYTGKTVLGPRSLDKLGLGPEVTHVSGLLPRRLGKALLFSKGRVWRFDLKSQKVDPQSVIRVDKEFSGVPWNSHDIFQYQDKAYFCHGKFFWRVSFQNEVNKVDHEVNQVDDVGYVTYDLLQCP", "assay": "MMP-9 Quantikine assay on lung homogenates of LPS-injured mice", "assay_type": "in vivo", "design": "One-hour post-Compound 1 treatment lung homogenates were collected and analyzed; from tissue; host or cells: lung tissue homogenate of LPS-injured mice", "procedure": "Inhibition of MMP-9 by inhaled Compound 1 treatment was assessed using a Quantikine Assay (R&D systems). Mice were injured by nasal instillation of LPS followed by treatment with inhaled PBS or Compound 1 (5 mg/mL). One-hour post-Compound 1 treatment lung homogenates were collected and analyzed."}, "[7]": {"conditions": "LPS treated mice, single inhaled dose"}}}
{"substance": "butanamide, N-hydroxy-2-[[(4-hydroxyphenyl)sulfonyl](3-pyridinylmethyl)amino]-3-methyl, hydrochloride, (2R) [Compound 1]", "values": [{"measurement": "Mouse Lung MMI 270", "setting": "[1]; High Dose (10 mg, ~35 mg/kg, nebulized), 1 hour later, Left Lung Lower Lobe", "value": 1415.95, "unit": "ng/g"}, {"measurement": "Mouse Lung MMI 270", "setting": "[1]; High Dose (10 mg, ~35 mg/kg, nebulized), 1 hour later, Right Lung Lower Lobe", "value": 598.24, "unit": "ng/g"}, {"measurement": "Mouse Serum MMI 270", "setting": "[1]; High Dose (10 mg, ~35 mg/kg, nebulized), 1 hour later", "value": 87.99, "unit": "ng/mL"}, {"measurement": "Mouse Lung MMI 270", "setting": "[1]; High Dose (10 mg, ~35 mg/kg, nebulized), 3 hour later, Left Lung Lower Lobe", "value": 119.51, "unit": "ng/g"}, {"measurement": "Mouse Lung MMI 270", "setting": "[1]; High Dose (10 mg, ~35 mg/kg, nebulized), 3 hour later, Right Lung Lower Lobe", "value": 50.75, "unit": "ng/g"}, {"measurement": "Mouse Serum MMI 270", "setting": "[1]; High Dose (10 mg, ~35 mg/kg, nebulized), 3 hour later", "value": 7.93, "unit": "ng/mL"}, {"measurement": "Mouse Lung MMI 270", "setting": "[1]; High Dose (10 mg, ~35 mg/kg, nebulized), 5 hour later, Left Lung Lower Lobe", "value": 70.67, "unit": "ng/g"}, {"measurement": "Mouse Lung MMI 270", "setting": "[1]; High Dose (10 mg, ~35 mg/kg, nebulized), 5 hour later, Right Lung Lower Lobe", "value": 23.36, "unit": "ng/g"}, {"measurement": "Mouse Serum MMI 270", "setting": "[1]; High Dose (10 mg, ~35 mg/kg, nebulized), 5 hour later", "value": 3.79, "unit": "ng/mL"}, {"measurement": "Mouse Lung MMI 270", "setting": "[1]; Low Dose (2 mg, ~5 mg/kg, nebulized), 1 hour later, Left Lung Lower Lobe", "value": 102.10, "unit": "ng/g"}, {"measurement": "Mouse Lung MMI 270", "setting": "[1]; Low Dose (2 mg, ~5 mg/kg, nebulized), 1 hour later, Right Lung Lower Lobe", "value": 155.55, "unit": "ng/g"}, {"measurement": "Mouse Serum MMI 270", "setting": "[1]; Low Dose (2 mg, ~5 mg/kg, nebulized), 1 hour later", "value": 2.97, "unit": "ng/mL"}, {"measurement": "Mouse Lung MMI 270", "setting": "[1]; Low Dose (2 mg, ~5 mg/kg, nebulized), 3 hour later, Left Lung Lower Lobe", "value": 42.92, "unit": "ng/g"}, {"measurement": "Mouse Lung MMI 270", "setting": "[1]; Low Dose (2 mg, ~5 mg/kg, nebulized), 3 hour later, Right Lung Lower Lobe", "value": 12.60, "unit": "ng/g"}, {"measurement": "Mouse Serum MMI 270", "setting": "[1]; Low Dose (2 mg, ~5 mg/kg, nebulized), 3 hour later", "value": "<LLOQ"}, {"measurement": "Mouse Lung MMI 270", "setting": "[1]; Low Dose (2 mg, ~5 mg/kg, nebulized), 5 hour later, Left Lung Lower Lobe", "value": 13.21, "unit": "ng/g"}, {"measurement": "Mouse Lung MMI 270", "setting": "[1]; Low Dose (2 mg, ~5 mg/kg, nebulized), 5 hour later, Right Lung Lower Lobe", "value": "<LLOQ"}, {"measurement": "Mouse Serum MMI 270", "setting": "[1]; Low Dose (2 mg, ~5 mg/kg, nebulized), 5 hour later", "value": "<LLOQ"}, {"measurement": "Mouse Lung MMI 270", "setting": "[1]; Medium Dose (5 mg, ~12 mg/kg, nebulized), 1 hour later, Left Lung Lower Lobe", "value": 465.18, "unit": "ng/g"}, {"measurement": "Mouse Lung MMI 270", "setting": "[1]; Medium Dose (5 mg, ~12 mg/kg, nebulized), 1 hour later, Right Lung Lower Lobe", "value": 127.68, "unit": "ng/g"}, {"measurement": "Mouse Serum MMI 270", "setting": "[1]; Medium Dose (5 mg, ~12 mg/kg, nebulized), 1 hour later", "value": 20.06, "unit": "ng/mL"}, {"measurement": "Mouse Lung MMI 270", "setting": "[1]; Medium Dose (5 mg, ~12 mg/kg, nebulized), 3 hour later, Left Lung Lower Lobe", "value": 49.60, "unit": "ng/g"}, {"measurement": "Mouse Lung MMI 270", "setting": "[1]; Medium Dose (5 mg, ~12 mg/kg, nebulized), 3 hour later, Right Lung Lower Lobe", "value": 18.92, "unit": "ng/g"}, {"measurement": "Mouse Serum MMI 270", "setting": "[1]; Medium Dose (5 mg, ~12 mg/kg, nebulized), 3 hour later", "value": 3.40, "unit": "ng/mL"}, {"measurement": "Mouse Lung MMI 270", "setting": "[1]; Medium Dose (5 mg, ~12 mg/kg, nebulized), 5 hour later, Left Lung Lower Lobe", "value": 26.04, "unit": "ng/g"}, {"measurement": "Mouse Lung MMI 270", "setting": "[1]; Medium Dose (5 mg, ~12 mg/kg, nebulized), 5 hour later, Right Lung Lower Lobe", "value": 13.55, "unit": "ng/g"}, {"measurement": "Mouse Serum MMI 270", "setting": "[1]; Medium Dose (5 mg, ~12 mg/kg, nebulized), 5 hour later", "value": "<LLOQ"}, {"measurement": "concentration of aerosolized Compound 1 in the lung", "setting": "[2]", "value": "> 100 ng/g of tissue"}, {"measurement": "total PMN counts in the BALF", "setting": "[3]; LPS then 24 h later single inhaled dose, n=5/group, p=0.01 (LPS/PBS 5.3×10^6)", "value": "1.2×10^6 neutrophils/ml"}, {"measurement": "macrophage count in the BALF", "setting": "[3]; [7]", "value": "remained unchanged"}, {"measurement": "overall cell count in BALF", "setting": "[3]; [7]", "value": "significant reduction"}, {"measurement": "Lung Injury Score (LIS)", "setting": "[4]; LPS 1.5 mg/kg, four doses (12 mg/kg) via nebulizer every 6 hours from 24 hours after LPS, n=5 (LPS only 0.524±0.054, PBS only 0.188±0.025)", "value": "0.277±0.031", "unit": "LIS"}, {"measurement": "inflammation in H&E stained lung sections (qualitative)", "setting": "[4]; LPS then four nebulized doses every 6 hours, vs mice only receiving LPS", "value": "reduced inflammation"}, {"measurement": "smoke induced increase in BALF cell counts", "setting": "[5]", "value": "failed to attenuate"}, {"measurement": "MMP-9 activity (Quantikine)", "setting": "[6]; LPS nasal instillation then inhaled Compound 1 (5 mg/mL), lung homogenates one hour post-treatment, n=6 (LPS 9260±1173, PBS 2388±370)", "value": "3614±442.1", "unit": "RFU"}, {"measurement": "MMP-9 levels in whole lung homogenate", "setting": "[6]; LPS-injured, Compound 1 treated animals", "value": "decreased significantly"}]}
